In ChEMBL document CHEMBL2417501, “Synthesis of 4-aminoquinoline-pyrimidine hybrids as potent antimalarials and their mode of action studies” (Eur J Med Chem, 2013):

How the values were obtained:
Influenza B virus = test: Antiviral activity against influenza B virus infected in dog MDCK cells assessed as reduction of virus-induced cytopathogenicity by MTS assay; assay type: functional, organism-based
Sindbis virus = test: Antiviral activity against Sindbis virus infected in african green monkey Vero cells assessed as reduction of virus-induced cytopathogenicity; assay type: functional, organism-based
DNA [1] = test: Binding affinity to calf thymus DNA assessed as compound DNA intercalation measured as hypochromatic shift at 255 nm at 30 uM by UV-visible spectrophotometry; assay type: nucleic-acid assay; details: Bos taurus
Coxsackievirus [2] = test: Antiviral activity against Coxsackievirus B4 infected in african green monkey Vero cells assessed as reduction of virus-induced cytopathogenicity; assay type: functional, organism-based
[3] = test system: Respiratory syncytial virus; test: Antiviral activity against Respiratory syncytial virus infected in human HeLa cells assessed as reduction of virus-induced cytopathogenicity; assay type: functional, organism-based
Plasmodium falciparum = test: Antimalarial activity against chloroquine-resistant Plasmodium falciparum Dd2; assay type: functional, organism-based
[4] = Cytotoxicity against human HEL cells; assay type: cell-based
[5] = Cytotoxicity against human HeLa cells; assay type: cell-based
[6] = test system: Vesicular stomatitis virus; test: Antiviral activity against Vesicular stomatitis virus infected in human HEL cells assessed as reduction of virus-induced cytopathogenicity; assay type: functional, organism-based
[7] = (§1) Cytotoxicity against MDCK cells assessed as cell viability after 4 days by MTS assay; assay type: cell-based, Canis lupus familiaris; details: dog, MDCK cells
MDCK = test: as §1; assay type: cell-based, Canis lupus familiaris; details: dog, mdck, 96 h
Cytomegalovirus [8] = test: Antiviral activity against Cytomegalovirus AD-169 infected in human HEL cells assessed as reduction of plaque formation; assay type: functional, organism-based; details: Human betaherpesvirus 5, AD-169, HEL
Influenza A virus [9] = test: Antiviral activity against influenza A virus H1N1 subtype infected in dog MDCK cells assessed as reduction of virus-induced cytopathogenicity by MTS assay; assay type: functional, organism-based
[10] = Inhibition of beta-hematin formation at 1 mg/ml; assay type: functional
DNA [11] = test: Binding affinity to calf thymus DNA assessed as compound DNA intercalation measured as hypochromatic shift at 330 nm at 30 uM by UV-visible spectrophotometry; assay type: nucleic-acid assay; details: Bos taurus
mu-oxodimeric heme = test: Binding affinity to mu-oxodimericheme (unknown origin) in phosphate buffer at pH 5.8 at 1 to 25 uM by UV-visible spectrophotometry
Human alphaherpesvirus 2 = test: Antiviral activity against Herpes simplex virus-2 G infected in human HEL cells assessed as reduction of virus-induced cytopathogenicity; assay type: functional, organism-based; details: Human alphaherpesvirus 2, strain G
Punta Toro virus = test: Antiviral activity against […] infected in african green monkey Vero cells assessed as reduction of virus-induced cytopathogenicity; assay type: functional, organism-based
Human alphaherpesvirus 3 [12] = test: Antiviral activity against TK-positive Varicella-zoster virus OKA infected in human HEL cells assessed as reduction of plaque formation; assay type: functional, cell-based; details: Human alphaherpesvirus 3, strain Oka vaccine
DNA [13] = test: Binding affinity to calf thymus DNA assessed as change in melting temperature at 30 uM by UV-visible spectrophotometry; assay type: nucleic-acid assay; details: Bos taurus
[14] = Selectivity index, ratio of CC50 for MDCK cells to IC50 for chloroquine-resistant Plasmodium falciparum Dd2; assay type: functional
[15] = Cytotoxicity against cat CRFK cells; assay type: cell-based, Felis catus; details: crfk
Human alphaherpesvirus 1 [16] = test: Antiviral activity against TK-negative Herpes simplex virus 1 KOS infected in human HEL cells assessed as reduction of virus-induced cytopathogenicity; assay type: functional, organism-based; details: Human alphaherpesvirus 1, KOS
DNA [17] = test: Binding affinity to calf thymus DNA at 30 uM by fluorescence assay; assay type: nucleic-acid assay; details: Bos taurus
[18] = test system: Vesicular stomatitis virus; test: Antiviral activity against Vesicular stomatitis virus infected in human HeLa cells assessed as reduction of virus-induced cytopathogenicity; assay type: functional, organism-based
Escherichia coli = test: Binding affinity to Escherichia coli pUC18 DNA at 30 uM by fluorescence assay
Cytomegalovirus [19] = test: Antiviral activity against Cytomegalovirus Davis infected in human HEL cells assessed as reduction of plaque formation; assay type: functional, organism-based; details: Human betaherpesvirus 5, Davis
Felid alphaherpesvirus 1 = test: Antiviral activity against feline herpesvirus infected in cat CRFK cells assessed as reduction of virus-induced cytopathogenicity by MTS assay; assay type: functional, organism-based; details: Felid alphaherpesvirus 1, CRFK
Feline coronavirus = test: Antiviral activity against Feline coronavirus infected in cat CRFK cells assessed as reduction of virus-induced cytopathogenicity by MTS assay; assay type: functional, organism-based; details: Alphacoronavirus 1, CRFK
Influenza A virus [20] = test: Antiviral activity against influenza A virus […] subtype infected in dog MDCK cells assessed as reduction of virus-induced cytopathogenicity by MTS assay; assay type: functional, organism-based; details: read-out: EC50
Human alphaherpesvirus 3 [21] = test: Antiviral activity against […] Varicella-zoster virus 07-1 infected in human HEL cells assessed as reduction of plaque formation; assay type: functional, organism-based; details: Human alphaherpesvirus 3, 07-1, HEL
Coxsackievirus [22] = test: Antiviral activity against Coxsackievirus B4 infected in human HeLa cells assessed as reduction of virus-induced cytopathogenicity; assay type: functional, organism-based
Heme [23] = test: Binding affinity to monomeric heme (unknown origin) in MES buffer at pH 5.6 at 1 to 25 uM by UV-visible spectrophotometry
Heme [24] = test: Binding affinity to monomeric heme (unknown origin) in HEPES buffer at pH 7.4 at 1 to 25 uM by UV-visible spectrophotometry
Human alphaherpesvirus 1 [25] = test: Antiviral activity against Herpes simplex virus-1 KOS infected in human HEL cells assessed as reduction of virus-induced cytopathogenicity; assay type: functional, organism-based; details: Human alphaherpesvirus 1, KOS
[26] = Cytotoxicity against african green monkey Vero cells; assay type: cell-based; details: chlorocebus sabaeus
[27] = test system: Mammalian orthoreovirus 1; test: Antiviral activity against Reovirus-1 infected in african green monkey Vero cells assessed as reduction of virus-induced cytopathogenicity; assay type: functional, organism-based; details: Mammalian orthoreovirus 1, Vero
Human respirovirus 3 = test: Antiviral activity against Parainfluenza-3 virus infected in african green monkey Vero cells assessed as reduction of virus-induced cytopathogenicity; assay type: functional, organism-based; details: Human respirovirus 3, Vero

With Cc1nc(NCCCCNc2ccnc3cc(Cl)ccc23)nc(-c2ccccc2)c1C(=O)OC(C)C as the molecule, how does the EC50 (Influenza B virus) read?
The EC50 was > 0.16 µM.

And the EC50 (Sindbis virus)?
The EC50 was > 4 µM.

What about the Activity (DNA [1]) of the same molecule?
The Activity was 112%.

And the EC50 (Coxsackievirus [2])?
Its EC50 is > 4 µM.

And the EC50 [3]?
Its EC50 is > 100 µM.

And the IC50 (Plasmodium falciparum)?
The IC50 was 0.153 µM.

And the MCC [4]?
The MCC was 20 µM.

And the MCC [5]?
Its MCC is > 100 µM.

What about the EC50 [6] of the same molecule?
The EC50 was > 4 µM.

What about the MCC at 96 h [7] of the same molecule?
The MCC at 96 h was 800 nM.

And the CC50 (MDCK)?
The CC50 was 0.6 µM.

And the EC50 (Cytomegalovirus [8])?
The EC50 was > 4 µM.

And the EC50 (Influenza A virus [9])?
The EC50 was > 0.16 µM.

What about the inhibition [10] of the same molecule?
Its inhibition is 72%.

What about the Activity (DNA [11]) of the same molecule?
Its Activity is 37%.

What about the log K (mu-oxodimeric heme) of the same molecule?
Its log K is 5.72.

What about the EC50 (Human alphaherpesvirus 2) of the same molecule?
Its EC50 is > 4 µM.

What about the EC50 (Punta Toro virus) of the same molecule?
Its EC50 is > 4 µM.

What about the EC50 (Human alphaherpesvirus 3 [12]) of the same molecule?
Its EC50 is 4 µM.

And the ΔTm (DNA [13])?
Its ΔTm is 7.5 °C.

What about the “Ratio CC50/IC50” value [14] of the same molecule?
Its value is 3.92.

And the CC50 [15]?
The CC50 was 50.6 µM.

What about the EC50 (Human alphaherpesvirus 1 [16]) of the same molecule?
Its EC50 is > 4 µM.

And the log K (DNA [17])?
Its log K is 5.76.

And the EC50 [18]?
The EC50 was > 100 µM.

And the log K (Escherichia coli)?
The log K was 5.73.

And the EC50 (Cytomegalovirus [19])?
The EC50 was > 4 µM.

And the EC50 (Felid alphaherpesvirus 1)?
Its EC50 is > 20 µM.

What about the EC50 (Feline coronavirus) of the same molecule?
The EC50 was > 20 µM.

And the EC50 (Influenza A virus [20])?
Its EC50 is > 0.16 µM.

And the EC50 (Human alphaherpesvirus 3 [21])?
Its EC50 is > 4 µM.

What about the EC50 (Coxsackievirus [22]) of the same molecule?
The EC50 was > 100 µM.

And the log K (Heme [23])?
Its log K is 4.58.

And the log K (Heme [24])?
The log K was 4.96.

And the EC50 (Human alphaherpesvirus 1 [25])?
Its EC50 is > 4 µM.

What about the MCC [26] of the same molecule?
The MCC was 20 µM.

What about the EC50 [27] of the same molecule?
Its EC50 is > 4 µM.

And the EC50 (Human respirovirus 3)?
The EC50 was > 4 µM.
